Patent US10226044B2, “Agricultural and horticultural composition and method for cultivating plant” (AJINOMOTO CO., INC., priority 2014, dated 2019)

Key:
tomato (Momotaro Fight) = experiment: Sprinkling of various compounds on tomato (Momotaro): first appearance, coloring and number of fruit; format: in vivo
Procedure: Three seeds of tomato (Momotaro Fight) were shown in compost contained in a slit pot, and cultivated in the same manner as described in Example 1, provided that the cultivation was performed in a greenhouse (daytime temperature was 25° C. (6:00 to 20:00), and night temperature was 15° C. (20:00 to 6:00)). The compost and application of fertilizer were the same or performed in the same manner as those described in Example 1. After 3 weeks, one root clump was left, and the others were thinned out. When a flower cluster of the first tier appeared, a support was put up, and after a flower cluster of the second tier appeared, pinching was performed (pinching of terminal bud). After the plants of four root clumps uniformly grew, and flower buds began to appear, water (Con.), 10 mM L-isoleucine aqueous solution (Ile), 10 mM monosodium glutamate aqueous solution (GluNa), 5 mM urea aqueous solution (Urea), or 10 mM phenylalanine aqueous solution (Phe) was sprinkled on the whole plants every two weeks. The sprinkled volume was adjusted in accordance with the growth of the plants, and it was 15 to 30 mL per one root clump. The concentration of urea was 5 mM so that nitrogen amount provided by it was the same as that provided by each of the amino acids. Then, the first appearance of fruit, ripening of fruit, and number of fruit produced were investigated for each root clump.

bok choy = details: substitution for 20% of nitrate nitrogen in nutrient solution, hydroponics; cited from earlier work
[1] = tested on: LOX, JAR1, PI and MYC2 genes; experiment: Real-time PCR of jasmonic acid synthesis and response genes in leaves after foliar application; format: in vivo, cherry tomato (Suncherry Pure); details: 10 mM Ile, 3 hours after foliar application
Procedure: Three hours after the foliar application, leaves of the same part were collected, and RNA was isolated by using SV Total RNA Isolation System™ (Promega) according to the manual of the kit. […] Expression of the 13-lipoxygenase (LOX) gene locating in the upstream of the jasmonic acid biosynthesis pathway, and the gene for synthesis of JA-Ile from JA and Ile (JASMONATE RESISTANT 1 (JAR1)) were analyzed. The expression amounts of the genes are represented as relative expression amounts with respect to that of the actin gene. The results of real-time PCR analysis of the jasmonic acid responding genes, protease inhibitor (PI) and MYC2 genes, performed by using the aforementioned cDNAs as the template are shown in FIG. 13. By the sprinkling of Ile, expression of the PI and MYC2 genes were increased.

[2] = tested on: VR callus derived from European grape; experiment: Anthocyanin content of grape calluses treated with amino acids; format: cell-based, Vitis vinifera L.
Procedure: A cell line (VR, management number RPC00003) derived from European grape (Vitis vinifera L.) and stored in the Institute of Physical and Chemical Research, BioResource Center was subcultured on the MS agar medium. The subcultured VR callus was transferred to the MS agar medium containing a 5 mM solution of a different amino acid, and cultured. For the positive control, abscisic acid (ABA), for which coloring-promoting effect is known, was used at 100 μM (Jeong et al., Plant Science, 167:247-252, 2004). On the 5th day after the transfer, the callus was lyophilized and ground, and anthocyanin was extracted from it by using a 1% HCl/MeOH solution. Absorbance of the extract was measured at 530 nm, and the content of anthocyanin was measured by using cyanidine 3-glucoside as a standard substance.
(2) In the same manner as described above, anthocyanin content of grape calluses treated with isoleucine and proline, respectively, were measured.

[3] = tested on: cherry tomato (Micro-Tom); experiment: Sprinkling of Ile on cherry tomato (Micro-Tom): blooming, appearance, ripening and number of fruit; format: in vivo
Procedure: Three seeds of cherry tomato (Micro-Tom) were shown in compost contained in a slit pot (upper diameter 10.5 cm×height 8.8 cm), and cultivated in a biotron at a temperature of 23° C. with a light period of 14 hours (6:00 to 20:00) and dark period of 10 hours (20:00 to 6:00). As the compost, a mixture of Kumiai Nippi Engei Baido No. 1 (Nihon Hiryo) and vermiculite at a ratio of 3:1 (volume ratio) was used. After 3 weeks, one root clump was left, and the others were thinned out. From one month after the sowing to harvest, a 300-fold diluted solution of Hyponex liquid fertilizer (N:P:K=6:10:5, Hyponex Japan) was additionally applied as soil fertilizer by irrigation at a frequency of once a week in a volume of 100 mL per one root clump (pot). After the plants of five root clumps uniformly grew, and flower buds began to appear, water (Control, or Con) or 10 mM L-isoleucine aqueous solution (Ile) was sprinkled on the whole plants once a week. The sprinkled volume was 5 mL per one root clump. Then, the blooming, appearance of fruit, ripening of the fruit, and number of fruit produced were investigated for each root clump.

[4] = relative to actin, compared to water (Con.)
[5] = 10 mM, once a week, compared to control

CC[C@H](C)[C@H](N)C(=O)O [Ile, L-isoleucine]
color of fruit obtained from flowers that bloomed on the same day (tomato (Momotaro Fight); 10 mM, fruit of water-sprinkled plant was green): already turned color to red
number of fruit turning color to orange or red (tomato (Momotaro Fight); 107th day after sowing, per four root clumps, water: 0): 4
number of harvested fruits (tomato (Momotaro Fight); after cultivation for 3 months after sowing, per four root clumps, water: 8): 16
growth (weight of root clump) (bok choy): not effective
nitrogen and phosphorus contents of terrestrial parts (shoots) (bok choy): increased
expression of the MYC2 gene [1]: increased
expression of the PI gene [1]: increased
Expression of the JAR1 gene in leaves [1, 4]: significantly higher
Expression of the LOX gene in leaves [1, 4]: significantly higher
anthocyanin content of callus, comparison of amino acids ([2]; 5 mM, 5th day): highest
change in color of the grape callus (anthocyanin content) ([2]; Ile of 1 mM or higher, Pro compared with Ile): promoted
Blooming and appearance of the fruit ([3]; 10 mM L-isoleucine sprinkled on whole plants once a week, 5 mL per root clump, compared to water (Con)): occurred sooner
Ripening of the tomatoes (fruit turned orange or red) [3, 5]: began earlier
number of colored tomatoes at the same time point [3, 5]: larger
numbers of blooms and fruit ([3]; 10 mM, once a week, compared to water (Con)): larger
number of harvested tomatoes, larger as compared to control ([3]; 10 mM, once a week, harvest on the 82nd day after sowing): 20%
